Assay results published in article PMC7589326, “Synthesis and Pharmacological Evaluation of Fluorinated Quinoxaline‐Based κ‐Opioid Receptor (KOR) Agonists Designed for PET Studies” (Chemmedchem, 2020).
Entries after “also recorded” stand apart in the source; their conditions may differ.

Assays:
[1] = In vitro biotransformation with mouse liver microsomes and NADPH (LC-MS/MS); details: mouse liver microsomes, NADPH, 90 min
MOG induced EAE = details: mouse, in vivo; cited from earlier work
KOR [2] = target: T1, KOR (Homo sapiens, UniProt P41145); parameters: expressed in transfected cells; host or cells: HEK 293T (ATCC CRL-11268); method as in PMID 30543421; details: human HEK 293T cells; refers to U-50,488 (100 %); cited from earlier work
Target sequence in this assay (P41145 whole entry, the tested form may be a part): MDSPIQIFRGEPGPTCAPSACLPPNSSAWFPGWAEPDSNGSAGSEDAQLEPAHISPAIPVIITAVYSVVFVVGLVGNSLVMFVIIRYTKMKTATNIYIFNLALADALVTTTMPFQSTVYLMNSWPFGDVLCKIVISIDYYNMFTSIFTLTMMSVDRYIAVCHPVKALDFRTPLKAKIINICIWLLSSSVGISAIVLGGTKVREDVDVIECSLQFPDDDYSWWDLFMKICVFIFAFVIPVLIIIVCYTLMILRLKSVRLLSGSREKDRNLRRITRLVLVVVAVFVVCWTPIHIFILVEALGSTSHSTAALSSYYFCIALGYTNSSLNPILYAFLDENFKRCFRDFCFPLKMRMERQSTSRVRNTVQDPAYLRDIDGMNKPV

KOR [3] = target: T1, KOR; parameters: expressed in transfected cells; host or cells: HTLA cells (stably expressing TEV-fused β-arrestin2); method as in PMID 30543421; details: human HTLA cells; refers to U-50,488 (100 %); cited from earlier work
Target sequence in this assay (P41145 whole entry, the tested form may be a part): as above
Target sequence in this assay (P32121 whole entry partner, the tested form may be a part): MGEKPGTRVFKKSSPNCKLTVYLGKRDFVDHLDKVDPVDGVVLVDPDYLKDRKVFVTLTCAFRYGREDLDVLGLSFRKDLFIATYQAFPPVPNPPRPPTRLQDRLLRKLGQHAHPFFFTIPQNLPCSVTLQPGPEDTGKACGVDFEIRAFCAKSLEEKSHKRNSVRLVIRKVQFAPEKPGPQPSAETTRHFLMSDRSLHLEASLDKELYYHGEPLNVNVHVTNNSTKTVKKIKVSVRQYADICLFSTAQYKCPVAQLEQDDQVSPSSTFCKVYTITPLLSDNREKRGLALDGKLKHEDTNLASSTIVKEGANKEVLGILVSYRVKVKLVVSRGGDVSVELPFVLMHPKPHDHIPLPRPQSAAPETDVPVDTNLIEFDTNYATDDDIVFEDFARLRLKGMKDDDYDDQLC

[4] = Distribution coefficient logD7.4, shake flask method with radioligand; assay type: physicochemical; details: n-octanol / phosphate buffered saline pH 7.4
Experimental: The distribution coefficient at pH 7.4 (logD7.4) was determined by a shake flask method using the radioligand [^18F]‐2. After distribution of [^18F]‐2 between n‐octanol and phosphate buffered saline (pH 7.4) layers, the radioactivity in both layers was determined and set in ratio. According to this procedure, a logD7.4 value of 1.37±0.06 was determined indicating a moderate lipophilic compound, which should be able to penetrate into the central nervous system.
The lipophilicity of radioligands [^18F]‐2 and [^18F]‐14c was assessed by determination of the water n‐octan‐1‐ol distribution coefficient (logD) following a published procedure.57 In brief, approximately 3.2 MBq of radioligand [^18F]‐2 and approximately 0.3 MBq of radiotracer [^18F]‐14c, respectively, were mixed with equal amounts (0.6 mL) of phosphate buffered saline (PBS, pH 7.4) and n‐octan‐1‐ol. The resulting biphasic system was mixed vigorously for 3 min at room temperature and subsequently, the tubes were centrifuged (≥5 min). Then 400 μL of the n‐octan‐1‐ol layer was separated and 400 μL of PBS were added. The mixture was mixed vigorously for 10 min at room temperature followed by centrifugation of the tubes for≥5 min. Two samples of 100 μL of each layer were counted in a γ‐counter (2480 Automatic Gamma Counter Wizard^2, Perkin‐Elmer). The distribution coefficient was determined by calculating the ratio cpm(n‐octan‐1‐ol)/cpm(PBS) and expressed as logD 7.4 (log(cpmn‐octanol/cpmPBS)). Three independent experiments were performed in duplicate and data were provided as mean values ±standard deviation.

[5] = Stability in mouse serum (radio-HPLC); assay type: in vitro ADME; details: 90 min, 37 °C
Experimental: (§1) Enzymes present in blood serum could be able to transform the radioactive PET tracer [^18F]‐2. Therefore, the blood serum stability of [^18F]‐2 was investigated before testing the tracer in vivo. [^18F]‐2 was incubated with mouse and human serum for 90 min at 37 °C.
(§2) The serum stability of radioligands [^18F]‐2 and [^18F]‐14c was evaluated by incubation in mouse or human serum at 37 °C for up to 90 min. An aliquot of formulated [^18F]‐2 or [^18F]‐14c (20 μL, ca. 6.6 MBq and ca.10 MBq, respectively) was added to a sample of mouse serum (200 μL) or human serum (200 μL), and the mixtures were incubated at 37 °C. Samples of 20 μL each were taken after periods of 10, 30, 60 and 90 min and ice‐cold DNA‐grade CH3CN (100 μL) were added. After centrifugation for ≥5 min, the supernatant was analyzed by analytical radio‐HPLC B, method B.

[6] = Stability in human serum (radio-HPLC); assay type: in vitro ADME; details: 90 min, 37 °C
Experimental: as §1, §2

[7] = In vivo biodistribution, small animal PET in C57BL/6 mice; parameters: species or system mouse; details: C57BL/6 mice, intravenous injection
Experimental: Next, the distribution of the PET tracer [^18F]‐2 in mice was investigated. For this purpose, [^18F]‐2 was injected into 15‐week‐old C57BL/6 mice. […] Already after 2 min the radioactivity was almost completely found in liver, kidneys and bladder. In the liver, the radioactivity remained almost constant over the period of 90 min (Figure 6). Besides a transient local increase in radioactivity in the submandibular and harderian glands, no significant accumulation of [^18F]‐2 in non‐excreting organs such as heart, lung and muscles as indicator for unspecific binding could be detected.
Adult C57BL/6 mice (n=2 male, 15 weeks, 28 g for [^18F]‐2; n=2, male, 10 weeks, 25 g for [^18F]‐14c) were anesthetized by isoflurane/O2 and one lateral tail vein was cannulated BY using a 27 G needle connected to 15 cm polyethylene catheter tubing. Radiotracers (∼500 kBq/g bodyweight, 15 MBq) were injected as a bolus (50 μL compound flushed with 100 μL saline) via the tail vein and subsequent PET scanning was performed.
Small Animal PET Scanning. PET experiments were carried out using a submillimeter high resolution (0.7 mm full width at half‐maximum) small animal scanner (32 module quadHIDAC, Oxford Positron Systems Ltd., Oxford, UK) with uniform spatial resolution (<1 mm) over a large cylindrical field (165 mm diameter, 280 mm axial length). List‐mode data were acquired for 90 min and reconstructed into dynamic time frames using an iterative reconstruction algorithm. Subsequently, the scanning bed was transferred to the computed tomography (CT) scanner (Inveon, Siemens Medical Solutions, U.S.), and a CT acquisition with a spatial resolution of 80 μm was performed for each mouse. Reconstructed image data sets were coregistered based on extrinsic markers attached to the multimodal scanning bed and the in‐house developed image analysis software MEDgical. Three‐dimensional volumes of interest (VOIs) were defined over the respective organs in CT data sets, transferred to the coregistered PET data, and analyzed quantitatively. Regional uptake was calculated as percentage of injected dose by dividing counts per milliliter in the VOI by total counts in the mouse multiplied by 100 (%ID/mL).

[8] = Biostability and biotransformation in mice in vivo (radio-HPLC of pooled blood); parameters: species or system mouse; details: pooled blood of three mice, 90 min after injection
Experimental: In order to investigate the in vivo biotransformation of [^18F]‐2, the blood of three mice 90 min after injection of [^18F]‐2 was pooled and analyzed.
Approximately 72 MBq of [^18F]‐2 (in a volume of 100 μL) were injected into the tail vein of each of three 11‐week‐old C57/BL6 mice. The animals were sacrificed 90 min after injection. Whole blood of the three mice was pooled (∼2 mL) and centrifuged (3 min) to isolate plasma. Plasma (∼0.7 mL) was separated and mixed with ice‐cold CH3CN (1.4 mL). After further centrifugation for 5 min, the supernatant was separated and evaporated to dryness in vacuo at moderate temperatures (≤60 °C). The residue was dissolved in water for injection (20 μL) and the solution was analyzed by analytical radio‐HPLC B, method B.

Compound: O=C(Cc1ccc(Cl)c(Cl)c1)N1CCNC2CCCC(N3CCC(F)C3)C21 (centres unmarked) [14c‐5]
- amount of metabolite formed from 14c [1]: minor amounts

Compound: O=C(Cc1ccc(Cl)c(Cl)c1)N1CCN(Cc2cn(CCF)nn2)C2CCCC(N3CCCC3)C21 (centres unmarked) [compound 2]
- protection from MS-like symptoms / disease severity in EAE (MOG induced EAE): significantly decreased diseases severity and delayed disease onset; also recorded: almost complete protection
- cAMP E max (KOR [2]): 103%
- β-Arrestin-2 E max (KOR [3]): 86%

Compound: O=C(Cc1ccc(Cl)c(Cl)c1)N1CCN(Cc2cn(CC[18F])nn2)[C@H]2CCC[C@H](N3CCCC3)[C@H]21 [[^18F]‐2, 2‐(3,4‐Dichlorophenyl)‐1‐((4aR,8R,8aS)‐ and ((4aS,8S,8aR)‐ 4‐{[1‐(2‐[^18F]fluoroethyl)‐1H‐1,2,3‐triazol‐4‐yl]methyl}‐8‐ (pyrrolidin‐1‐yl)‐3,4,4 a,5,6,7,8,8 a‐octahydroquinoxalin‐ 1(2H)‐yl)ethan‐1‐one]
- logD [4]: 1.37 ± 0.06
- stability in mouse serum [5]: high stability
- stability in human serum [6]: high stability
- radioactivity in the bones / defluorination [7]: increased radioactivity in the bones was not observed
- enrichment of radioactivity in brain or spinal cord (PET images) ([7]; 90 min observation): do not show any enrichment of radioactivity in the brain or spinal cord
- clearance from the body ([7]; hepatic and renal pathways): very fast and efficient clearance
- intact PET tracer in blood [8]: 90%
